Assay results from PMC6844378, “Structure activity relationship studies on Amb639752: toward the identification of a common pharmacophoric structure for DGKα inhibitors” (Journal of Enzyme Inhibition and Medicinal Chemistry, 2019).
Entries after “also recorded” stand apart in the source; their conditions may differ.

How the values were obtained:
[1] = system: serotonin receptors; assay: Superoxide anion production: serotonin effect on PMA-induced oxidative burst in monocytes; format: cell-based; settings: drugs 10 µM, 1 h; serotonin 1 µM; PMA 1 µM 30 min; human monocytes
Protocol: Human monocytes were isolated from healthy anonymous human buffy coats (provided by the Transfusion Service of Ospedale Maggiore della Carità, Novara, Italy) by the standard technique of dextran sedimentation and Histopaque (density = 1.077 g cm^3, Sigma-Aldrich, Milano, Italy) gradient centrifugation (400×g, 30 min, room temperature) and recovered by fine suction at the interface, as described previously. Purified monocytes populations were obtained by adhesion (90 min, 37 °C, 5% CO2) in serum-free RPMI 1640 medium (Sigma-Aldrich, Milano, Italy) supplemented with 2 mM glutamine and antibiotics. Cell viability (trypan blue dye exclusion) was usually >98%.
All the experiments were performed in triplicate using cells isolated from each single donor.
Monocytes (250,000 cells/well) were treated for 1 h with the indicated drugs (10 µM) with or without serotonin (1 µM). Then, cells were stimulated with phorbol 12-myristate 13-acetate (PMA; Sigma-Aldrich, Milano, Italy) 1 µM for 30 min. PMA is a well-known stimulus that induces a strong and significant respiratory burst via PKC activation. Superoxide anion production was then evaluated by the superoxide dismutase (SOD)-sensitive cytochrome C (CytC) reduction assay and expressed as nmoles CytC reduced/10^6 cells/30 min, using an extinction coefficient of 21.1 mM. To avoid interference with spectrophotometrical recordings, cells were incubated with RPMI 1640 without phenol red, antibiotics, and FBS.
To this purpose, we measured the effect of serotonin on PMA-induced oxidative burst in human monocytes. As previously shown, 1 µM serotonin reverses the oxidative burst to control values.
Figure 8. […] Results are expressed as n moles of reduced cytochrome C/10^6 cells. Data are means ± SEM of 10 independent experiments performed in triplicate.

[2] = system: serotonin receptors; set-up: method as in PMID 30611057; settings: cited from earlier work

- effect on serotonin action on PMA-induced oxidative burst [1]: had no effect
Structure (SMILES): Cc1ccc2c(C(=O)CN3CCN(C(=O)c4ccco4)CC3)c(C)[nH]c2c1 [Amb639752]
- anti-serotoninergic activity [2]: no effects on serotonin activity; also recorded: devoid of anti-serotoninergic activity
